Structures can show the parent of a compound that is named as a salt.
Experiments:
Assay type in all cases: cell-based, human
peritoneal macrophages [1] = assay: Degree of differentiation and activation of peritoneal macrophages (CD15, CD11c, CD69, CD71 cytofluorimetry); settings: Control = 1.0; after 6 days of incubation; α-lipoic acid 50 μM, ambroxol 10 μM, enalapril 5 μM, captopril 10 μM
peritoneal macrophages [2] = assay: Phagocytosis capacity of peritoneal macrophages (cytofluorimetric test with opsonized fluorochrome-marked bacteria); settings: treatment time of 6 days
Experimental: Peritoneal macrophages were isolated using a method analogous to the method described in Example 3 and cultivated ex vivo. The phagocytosis capacity was determined by a cytofluorimetric test on the single-cell level. The macrophages were thereby co-cultivated with opsonized and fluorochrome-marked bacteria. The number of bacteria absorbed during a defined period was determined quantitatively by means of the fluorescence intensity in the macrophages and was used as a measurement for their phagocytosis capacity. The influence of the combinations used according to the invention on the phagocytosis capacity of the peritoneal macrophages after a treatment time of 6 days is presented in the following table.

peritoneal macrophages [3] = assay: Degree of differentiation and activation of peritoneal macrophages (CD15, CD11c, CD69, CD71 cytofluorimetry); settings: Control = 1.0; after 6 days of incubation; α-lipoic acid 50 μM, ambroxol 10 μM, enalapril 5 μM, captopril 10 μM; remark: listed apart in the source
Experimental: Peritoneal macrophages were isolated from patients during renal replacement therapy using the method described in Example 3 and cultivated in the presence of the combinations of α-lipoic acid and effectors of the glutathione metabolism according to the invention. After 6 days of incubation, the degree of differentiation of the peritoneal macrophages was determined by means of the expression of the cell surface antigens CD15 and CD11c, and the degree of cellular activation was determined using cytofluorimetry by means of the co-expression of the activation antigens CD69 to CD15-positive cells and CD71 to […] cells.

T-lymphocytes = assay: Activation markers CD69, CD25, CD71 of PHA-stimulated T-lymphocytes (activation index); settings: thiol-deficient cells, 1.0 μg/ml phytohemagglutinin, culture time 72 hours; normal = 1.0
Experimental: In the cultivation experiment described with reference to Example 1, human T-lymphocytes were stimulated with 1.0 μg/ml phytohemagglutinin. In a culture time of 72 hours, specific markers of the cellular activation were quantitatively detected using cytofluorimetery by means of monoclonal antibodies. The influence of the combinations used according to the invention on the activation markers CD69 (early activation antigen), CD25 (intermediate activation antigen) and CD71 (late activation antigen) of T-lymphocytes was measured. […] It can thus be concluded that the normalization of the cellular thiol status achieved by the combined use of α-lipoic acid and the respective effectors of the glutathione metabolism is accompanied by a restitution of cell function.

peritoneal macrophages [4] = assay: Intracellular thiol expression of peritoneal macrophages from peritoneal dialysis patients; settings: time kinetic over 14 days
Experimental: Peritoneal macrophages were isolated from the effluate of peritoneal dialysis of patients with a high degree of renal insufficiency, absorbed in a cell culture medium and incubated in a gasifying incubation cabinet at 37° C., a relative humidity of 98% and 7.5% relative air-CO2 content. To investigate the influence of the combinations used according to the invention on the thiol status of the peritoneal macrophages, individual fractions were treated with α-lipoic acid, the effectors of the glutathione metabolism ambroxol or the ACE inhibitor enalapril and with the combination of α-lipoic acid/ambroxol or α-lipoic acid/enalapril, while an additional fraction was maintained as an untreated control. The cellular thiol status was determined using the measurement methods described in Example 1. FIG. 4 illustrates the effect of the combination of α-lipoic acid and ambroxol (FIG. 4a) and α-lipoic acid and enalapril (FIG. 4b) in a time kinetic over 14 days […].

[5] = tested on: lymphocytes (peripheral immune cells); assay: Intracellular thiol expression of thiol-depleted peripheral immune cells (CMFDA flow cytofluorimetry); settings: thiol-deficient conditions (1603), 10-20% thiol reduction
Experimental: Peripheral immune cells from healthy donors (n=9) were isolated from the peripheral blood. The major fraction of the resulting total population of mononuclear cells regularly represents lymphocytes with a relative percentage of approximately 90%, depending on the donor. 10% of the mononuclear cells are represented by monocytes. The mononuclear cells obtained were absorbed in special cell culture media and incubated in a gasifying incubation cabinet at 37° C., a relative humidity of 98% and 5% relative air-CO2 content. […] To test the influence of the combinations used according to the invention on the thiol status of thiol-deficient immune cells, these cells were artificially thiol-depleted. This process was carried out using proven methods by cultivation in thiol-deficient media (RPMI 1603). Comparative cultures using complete media (RPMI) 1640) were used to define the best possible normal value under the culture conditions. […] Primarily non-fluorogenic CMFDA is thereby passively absorbed by the cell. By means of the chlormethyl group, there is a bonding to cytoplasmic thiol groups. […] The median fluorescence intensity of the specimen (10,000 cells) is directly proportional to the concentration of the intracellular thiol groups. […] The data are presented as the ratio of the cellular fluorescence intensity to the respective calibration particles (beads) that were analyzed simultaneously. […]

[6] = tested on: lymphocytes (peripheral immune cells); assay: Membrane-bound thiol expression of thiol-depleted peripheral immune cells (CMTMR flow cytofluorimetry); settings: α-lipoic acid 50 μM, captopril 10 μM, combination at the same concentrations
Experimental: Peripheral immune cells from healthy donors (n=9) were isolated from the peripheral blood. The major fraction of the resulting total population of mononuclear cells regularly represents lymphocytes with a relative percentage of approximately 90%, depending on the donor. 10% of the mononuclear cells are represented by monocytes. The mononuclear cells obtained were absorbed in special cell culture media and incubated in a gasifying incubation cabinet at 37° C., a relative humidity of 98% and 5% relative air-CO2 content. […] To test the influence of the combinations used according to the invention on the thiol status of thiol-deficient immune cells, these cells were artificially thiol-depleted. This process was carried out using proven methods by cultivation in thiol-deficient media (RPMI 1603). Comparative cultures using complete media (RPMI) 1640) were used to define the best possible normal value under the culture conditions. The expression of membrane-bound thiol groups was also determined using flow cytofluorimetry. In this case, chloromethyltetramethyl rhodamine (CMTMR) was used as thiol conjugate under the conditions of a blocked membrane potential and an inhibited diffusion capacity of the cells. The fluorescence intensity of the fluorochrome molecules bound to the cell membrane is in turn proportional to the number of thiol groups on the cell surface. The results obtained with this experimental investigation of the influence of the combinations according to the invention on the expression of cell membrane bound thiols are presented in FIG. 2 for the combinations of α-lipoic acid and ambroxol (FIG. 2a) and α-lipoic acid and enalapril (FIG. 2b). The following table presents the results for the combination of α-lipoic acid and captopril.

peritoneal macrophages [7] = assay: Stability of intracellular thiol restitution in peritoneal macrophages in the dialysis model; settings: after approximately 4 days in the dialysis model
Experimental: (§1) The combinations of thiol-restored peritoneal macrophages used according to the invention were extracted from this test system after 6 days and cultivated over a period of 14 days in a dialysis model. For this purpose the peritoneal macrophages were adapted to matrices that were coated with collagen IV and placed in contact with conventional high-glucose dialysis solution 3 times a day for 60 minutes each time. In this case, the model was used for the induction of a combined hyperglycemic/osmotic stress. […] The membrane expression of thiol was determined on the basis of the median fluorescence intensity (mfi) of the specimen (3000 cells/measurement) after coupling to a chlormethyl-fuorochrome derivative. […] Here, too, there is a mono-effect of α-lipoic acid, although it lasts only briefly and after approximately 4 days in the dialysis model is only approximately 50% as effective as the combinations.

peritoneal macrophages [8] = assay: Membrane thiol expression of peritoneal macrophages from peritoneal dialysis patients; settings: α-lipoic acid effect disappeared after 4 days of treatment
Experimental: Peritoneal macrophages were isolated from the effluate of peritoneal dialysis of patients with a high degree of renal insufficiency, absorbed in a cell culture medium and incubated in a gasifying incubation cabinet at 37° C., a relative humidity of 98% and 7.5% relative air-CO2 content. To investigate the influence of the combinations used according to the invention on the thiol status of the peritoneal macrophages, individual fractions were treated with α-lipoic acid, the effectors of the glutathione metabolism ambroxol or the ACE inhibitor enalapril and with the combination of α-lipoic acid/ambroxol or α-lipoic acid/enalapril, while an additional fraction was maintained as an untreated control. The cellular thiol status was determined using the measurement methods described in Example 1. […] The membrane expression of thiols was determined on the basis of the median fluorescence intensity (mfi) of the specimen (3000 cells/measurement) after coupling to a chlormethyl-fluorochrome derivative.

peritoneal macrophages [9] = assay: Stability of membrane-bound thiol expression in peritoneal macrophages in the dialysis model; settings: 14 days, high-glucose dialysis solution
Experimental: as §1, with “combinations. A similar result is apparent in the curves of the membrane-bound thiol expression illustrated in FIG. 7.” for “combinations.”

Row | SMILES | CD11c/71 co-expression (peritoneal macrophages [1]) | Phagocytosis rate higher than that of the untreated control by a factor of (peritoneal macrophages [2]) | CD11c expression (peritoneal macrophages [3]) | CD15/69 co-expression (peritoneal macrophages [3]) | CD15 expression (peritoneal macrophages [3]) | Effect on the activation index of T-lymphocytes (CD69, CD25, CD71; in words) (T-lymphocytes) | Effect on cellular thiol expression of peritoneal macrophages (in words) (peritoneal macrophages [4]) | Membrane-resistant thiol expression ([6]; length of culture 0 d) [mfiBeads/Ratio] | Membrane-resistant thiol expression ([6]; length of culture 1 d) [mfiBeads/Ratio] | Membrane-resistant thiol expression ([6]; length of culture 2 d) [mfiBeads/Ratio] | Membrane-resistant thiol expression ([6]; length of culture 3 d) [mfiBeads/Ratio] | Membrane-resistant thiol expression ([6]; length of culture 4 d) [mfiBeads/Ratio] | Membrane-resistant thiol expression ([6]; length of culture 6 d) [mfiBeads/Ratio] | Membrane-resistant thiol expression ([6]; length of culture 8 d) [mfiBeads/Ratio] | Membrane-resistant thiol expression ([6]; length of culture 10 d) [mfiBeads/Ratio] | Membrane-resistant thiol expression ([6]; length of culture 12 d) [mfiBeads/Ratio] | Membrane-resistant thiol expression ([6]; length of culture 14 d) [mfiBeads/Ratio] | also measured
1 | CCOC(=O)[C@H](CCc1ccccc1)NC(C)C(=O)N1CCCC1C(=O)O (stereo in doubt) [Enalapril, 1-{N-[(S)-1-ethoxycarbonyl-3-phenylpropyl]-L-alanyl}-L-prolin] | 1.10 ± 0.14 | 1.53 | 1.23 ± 0.22 | 1.19 ± 0.12 | 1.21 ± 0.22 | equivalent to α-lipoic acid only in the case of the effectuation of the CD25 antigen |  |  |  |  |  |  |  |  |  |  |  | 
2 | Nc1c(Br)cc(Br)cc1CNC1CCC(O)CC1 (centres unmarked) [Ambroxol, hydrochloride] | 0.96 ± 0.1 | 1.35 | 1.01 ± 0.09 |  | 0.98 ± 0.13 | does not have any influence on one of the three activation markers | had no effect |  |  |  |  |  |  |  |  |  |  | 
3 | O=C(O)CCCCC1CCSS1 (stereo not drawn) [α-lipoic acid] | 1.08 ± 0.09 | 1.85 | 1.21 ± 0.11 | 1.09 ± 0.08 | 1.18 ± 0.16 | slight improvement of the cellular activation | increase of the cellular thiol expression | 2.37 ± 0.45 | 2.65 ± 0.39 | 2.43 ± 0.52 | 2.31 ± 0.36 | 2.26 ± 0.20 | 2.19 ± 0.13 | 1.93 ± 0.20 | 1.63 ± 0.16 | 1.32 ± 0.21 | 1.34 ± 0.20 | Effect on the intracellular thiol deficit (in words) [5]: not possible to achieve a complete compensation of the thiol deficit; Effectiveness relative to the combinations (peritoneal macrophages [7]): approximately 50%; Effect on membrane-bound thiol expression of peritoneal macrophages (in words) (peritoneal macrophages [8]): very clear effect; Membrane-bound thiol expression in the dialysis model (in words) (peritoneal macrophages [9]): intermediary
4 | C[C@H](CS)C(=O)N1CCC[C@H]1C(=O)O [Captopril, 1-[(2S)-3-mercapto-2-methylpropionyl]-L-prolin] | 1.52 ± 0.16 |  | 1.26 ± 0.24 | 1.69 ± 0.21 | 1.19 ± 0.14 |  |  | 2.37 ± 0.45 | 2.63 ± 0.39 | 2.54 ± 0.41 | 2.52 ± 0.38 | 2.50 ± 0.41 | 2.46 ± 0.50 | 2.01 ± 0.39 | 1.68 ± 0.29 | 1.02 ± 0.51 | 0.99 ± 0.46 | 

From patent US20040138311A1, “Medicament containing an effector of the glutathione metabolism together with $g(a)-lipoic acid for treating diabetes mellitus” (priority 2001, published 2004)
